The test system of test [1] is AML patients (1 month to 29.9 years old). The test is described as follows: COG-AAML0531 clinical trial, ADE vs ADE+GO arms: MRD1, EFS and OS overall and by ACS10 score and CD33 SNP. Type of test: in vivo, human. The note with it: low ACS10 score. The method, then: AAML0531 clinical trial enrolled previously untreated AML patients (1 month to 29.9 years old) who were randomized to receive ADE (cytarabine 100 mg/m^2/dose twice per day for […] alongside with daunorubicin and etoposide-equivalent to LDAC arm of St. Jude AML02) with or without the addition of 1 dose in induction 1 and 1 dose in intensification of CD33-targeting drug gemtuzumab ozogamicin (ADE+GO arm). Genotype data on 10 SNPs that were part of the ACS10 score in the discovery cohort was generated in 931 patients (n=465 in standard ADE arm and n=466 in ADE+GO arm). […] In subsequent analysis to check whether ACS10 score has impact on the GO addition, the evaluation of patients from the ADE+GO arm was also considered.
The association of MRD1, EFS, and OS was evaluated with ACS10 scores in the AML02 discovery cohort and the AAML0531 validation cohort. The Kaplan-Meier method was used to estimate the EFS and OS probabilities for well-defined groups of patients. Cox regression models were used to associate ACS10 with EFS and OS and used logistic regression models to associate ACS10 with MRD1. The Wilcoxon rank-sum test and Kruskal-Wallis test were used to compare medians of numeric variables across groups. Chi-square tests and Fisher's exact test were used to evaluate the association among pairs of categorical variables. All p-values are two-sided. […]

For test [2] the test system is unchanged. The following applies: previously reported, cited from earlier work.

On to gemtuzumab ozogamicin [GO], for which, in test [1] (CD33 rs12459419 CC genotype), the “benefit from adding GO (EFS and OS)” value was “benefit from adding GO”. In addition, in test [1] (CT/TT genotype for CD33 rs12459419), the “benefit from addition of GO (EFS and OS)” value is reported as “do not benefit from addition of GO”. Moreover, the “benefit from addition of GO to standard chemotherapy” value in test [2] (CD33 rs12459419 CT/TT genotypes, ADE+GO versus ADE) is given as “derived no benefit from addition of GO”. For the same substance, in test [2] (CD33 rs12459419 homozygous CC genotype), the “survival (EFS and DFS) with addition of GO to standard chemotherapy” value is on record as “significantly better survival”.

The record behind these values is patent publication US20240344145A1, “PHARMACOGENOMICS SCORE TO MAKE DECISIONS ON THERAPY AUGMENTATION IN AML” (University of Florida Research Foundation, Incorporated, priority 2021, published 2024).
